Reference: DBAASP
≈ marks a conversion by molar mass, not a printed value. Values belong to the molecule of their own block, whether it stands above or below them.

What was measured:
Experiment in all cases: ≥ marks a high value that may be exact or a test limit, other limits are often not marked, values filed in µg/mL are converted to µM
[1] = test system: Enterococcus faecium ATCC 700221
[2] = test system: Acinetobacter baumannii ATCC BAA-1605
[3] = test system: Staphylococcus aureus ATCC 33591
[4] = test system: Klebsiella pneumoniae ATCC 700603
[5] = test system: Escherichia coli ATCC 25922
[6] = test system: Pseudomonas aeruginosa ATCC 27853
[7] = test system: Pseudomonas aeruginosa PA14
Enterobacter cloacae = test system: Enterobacter cloacae
[8] = test system: Klebsiella pneumoniae KpC+001825971
[9] = test system: Escherichia coli KpC+001812446
Staphylococcus aureus MR = test system: Staphylococcus aureus MR
[10] = test system: Pseudomonas aeruginosa PAO1
Acinetobacter baumannii = test system: Acinetobacter baumannii
[11] = test system: Klebsiella pneumoniae ATCC 13883
[12] = test system: Staphylococcus aureus ATCC 12600
Escherichia coli BL21 = test system: Escherichia coli BL21
[13] = test system: Staphylococcus aureus ATCC 25923
Escherichia coli = test system: Escherichia coli
[14] = test system: Trichophyton rubrum ATCC 28189
[15] = test system: Candida albicans ATCC 24433
[16] = test system: Candida parapsilosis ATCC 22019
Staphylococcus aureus = test system: Staphylococcus aureus

MIC [1]: 23.2 µM (≈ 35 µg/mL)
MIC [2]: 11.6 µM (≈ 17.5 µg/mL)
MIC [3]: ≥ 46.8 µM
MIC [4]: 23.2 µM (≈ 35 µg/mL)
MIC [5]: 46.8 µM (≈ 70.5 µg/mL)
MIC [6]: 46.8 µM (≈ 70.5 µg/mL)
SMILES: CC[C@H](C)[C@H](NC(=O)[C@H](CCCCN)NC(=O)[C@H](CCCN=C(N)N)NC(=O)[C@H](Cc1ccccc1)NC(=O)[C@H](CC(C)C)NC(=O)[C@H](CCCN=C(N)N)NC(=O)[C@@H](N)CCCCN)C(=O)N[C@@H](CC(C)C)C(=O)N[C@@H](CCCN=C(N)N)C(=O)N[C@@H](Cc1ccc(O)cc1)C(=O)N[C@@H](CC(C)C)C(N)=O [KRLFRKILRYL]

MIC [7]: 8 µM (≈ 17.2 µg/mL)
MIC (Enterobacter cloacae): ≥ 32 µM
MIC [8]: ≥ 32 µM
MIC [9]: 2 µM (≈ 4.3 µg/mL)
MIC (Staphylococcus aureus MR): ≥ 32 µM
MIC [10]: 16 µM (≈ 34.4 µg/mL)
MIC (Acinetobacter baumannii): 4 µM (≈ 8.59 µg/mL)
MIC [11]: 8 µM (≈ 17.2 µg/mL)
MIC [12]: 16 µM (≈ 34.4 µg/mL)
MIC (Escherichia coli BL21): 2 µM (≈ 4.3 µg/mL)
MIC [5]: 8 µM (≈ 17.2 µg/mL)
MIC [13]: 8 µM (≈ 17.2 µg/mL)
SMILES: CC[C@H](C)[C@H](NC(=O)[C@H](CCCCN)NC(=O)[C@H](C)NC(=O)[C@H](C)NC(=O)[C@H](CC(C)C)NC(=O)[C@H](CCCN=C(N)N)NC(=O)[C@H](CC(C)C)NC(=O)[C@H](C)NC(=O)[C@H](CC(C)C)NC(=O)[C@H](CCCCN)NC(=O)[C@H](CC(C)C)NC(=O)[C@H](CCCCN)NC(=O)[C@H](CCCCN)NC(=O)[C@H](CCSC)NC(=O)[C@@H]1CCCN1)C(=O)N[C@@H](C)C(=O)N1CCC[C@H]1C(=O)N[C@H](C(=O)N[C@@H](Cc1c[nH]c2ccccc12)C(=O)O)C(C)C [PMKKLKLALRLAAKIAPVW]

MIC (Escherichia coli): > 324 µM
MIC [14]: ≥ 324 µM
MIC [15]: ≥ 324 µM
MIC [16]: ≥ 324 µM
MIC (Staphylococcus aureus): > 324 µM
SMILES: CC[C@H](C)[C@H](NC(=O)[C@H](CCC(=O)O)NC(=O)[C@H](CO)NC(=O)[C@H](CCCN=C(N)N)NC(=O)[C@@H](N)CO)C(=O)N[C@H](C(=O)N[C@@H](CCC(N)=O)C(=O)N[C@@H](CCCN=C(N)N)C(=O)N[C@@H](CC(C)C)C(=O)N[C@@H](Cc1ccccc1)C(N)=O)C(C)C [SRSEIVQRLF]
